# How the values were obtained:
# [1] = biological target: T1, Prostaglandin G/H synthase 2 (Homo sapiens, UniProt P35354)
# T1 sequence (P35354 whole entry): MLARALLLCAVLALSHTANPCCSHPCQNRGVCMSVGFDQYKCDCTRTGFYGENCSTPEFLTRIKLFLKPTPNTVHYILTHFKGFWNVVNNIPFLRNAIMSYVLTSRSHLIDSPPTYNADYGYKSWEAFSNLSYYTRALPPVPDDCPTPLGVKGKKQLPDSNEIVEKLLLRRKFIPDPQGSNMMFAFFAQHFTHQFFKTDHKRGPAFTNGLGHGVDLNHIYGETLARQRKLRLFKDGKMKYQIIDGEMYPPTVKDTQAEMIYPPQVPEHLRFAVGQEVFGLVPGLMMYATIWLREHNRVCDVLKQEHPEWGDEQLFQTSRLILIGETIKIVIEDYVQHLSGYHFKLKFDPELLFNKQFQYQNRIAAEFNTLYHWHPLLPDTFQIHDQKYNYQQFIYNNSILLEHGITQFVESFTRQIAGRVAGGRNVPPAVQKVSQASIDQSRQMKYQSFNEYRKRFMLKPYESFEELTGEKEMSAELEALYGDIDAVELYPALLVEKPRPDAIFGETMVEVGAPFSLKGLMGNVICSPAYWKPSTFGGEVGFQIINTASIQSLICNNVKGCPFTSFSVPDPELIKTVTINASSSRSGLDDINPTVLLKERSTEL
# [2] = species on record: Homo sapiens; test: Selectivity index, ratio of IC50 for […]
# [3] = biological target: Prostaglandin G/H synthase 1 (Homo sapiens, UniProt P23219)
# Chain of Prostaglandin G/H synthase 1 (P23219 whole entry): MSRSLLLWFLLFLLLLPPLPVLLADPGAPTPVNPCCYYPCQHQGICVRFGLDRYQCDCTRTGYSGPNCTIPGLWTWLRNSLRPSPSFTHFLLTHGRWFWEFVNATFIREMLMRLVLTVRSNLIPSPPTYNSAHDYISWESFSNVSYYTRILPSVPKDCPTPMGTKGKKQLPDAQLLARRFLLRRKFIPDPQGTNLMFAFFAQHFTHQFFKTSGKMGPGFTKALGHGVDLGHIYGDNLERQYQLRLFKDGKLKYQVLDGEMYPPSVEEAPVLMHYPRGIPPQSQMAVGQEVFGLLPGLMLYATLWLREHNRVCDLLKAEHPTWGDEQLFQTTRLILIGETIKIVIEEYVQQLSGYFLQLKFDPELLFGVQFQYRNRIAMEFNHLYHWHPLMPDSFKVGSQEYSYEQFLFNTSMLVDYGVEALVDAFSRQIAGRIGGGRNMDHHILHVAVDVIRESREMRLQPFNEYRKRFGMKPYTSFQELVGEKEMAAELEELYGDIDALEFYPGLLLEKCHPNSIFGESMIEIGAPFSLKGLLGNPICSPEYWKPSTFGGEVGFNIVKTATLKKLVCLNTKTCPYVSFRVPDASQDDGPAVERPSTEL
IC50 [1] [nM],Ratio IC50 [2],IC50 [3] [nM],Compound
150,359,53900,Cc1ccc(N2C(=O)CSC2c2ccc(S(C)(=O)=O)cc2)cc1 (configuration not stated)
160,> 625,> 100000,COc1ccc(N2C(=O)CSC2c2ccc(S(C)(=O)=O)cc2)cc1 (configuration not stated)
200,480,96100,CS(=O)(=O)c1ccc(C2SCC(=O)N2c2ccccc2)cc1 (configuration not stated)

Compound,IC50 [1] [nM],Ratio IC50 [2],IC50 [3] [nM]
CS(=O)(=O)c1ccc(C2SCC(=O)N2c2ccc(F)cc2)cc1 (configuration not stated),120,> 833,> 100000
